Tests used:
[1] = test system: GMF cells (A-172 with inducible MAN2A1-FER-FLAG); assay: Cell death by Annexin V and propidium iodide staining, GMF cells; format: cell-based; details: Homo sapiens, A 172, GMF cells
Description: (§1) FIG. 18. […] Factions of cell death were then quantified by Annexin V and propridium iodide staining. […] Factions of cell death were then quantified by Annexin V and propridium iodide staining. […] Factions of cell death were then quantified by Annexin V and propridium iodide staining.
(§2) Since the kinase activity of MAN2A1-FER and EGFR activation are the drivers of MAN2A1-FER oncogenic activity, it is of interest to examine whether inhibition of the kinase activity of MAN2A1-FER or EGFR interrupts the oncogenic activity of MAN2A1-FER, and thus the growth of the tumors.

A-172 cells xenograft = assay: Kinase inhibitor treatment of SCID mice xenografted with A-172 (GMF) cells; format: in vivo, mouse; details: for reduction of final tumor size: A-172, MAN2A1-FER present, vs DMSO controls, crizotinib 12.5 mg/kg, canertinib 10 mg/kg, 3 times a week, peritoneal injection
Description: (§3) Treatment of Severe Combined Immunodeficient Mice Xenografted With Cancer Cells. For kinase inhibitor treatment experiments, PMF, GMF, HUH7, and HUH7/ko cells (2×10^7 cells) were xenografted into the subcutaneous region of SCID mice. […] Serial sections of formalin-fixed, paraffin-embedded lung, brain, liver, kidney, vertebra, and lymph node specimens were collected, stained with H&E, and examined microscopically.

HUH7 cells = assay: Cell death by Annexin V and propidium iodide staining, HUH7 cells and MAN2A1-FER knockout counterpart; format: cell-based; details: Homo sapiens
Description: as §1, §2

HUH7 cells xenograft = assay: Kinase inhibitor treatment of SCID mice xenografted with HUH7 or HUH7/ko cells; format: in vivo, mouse; details: for reduction of final tumor size: HUH7, MAN2A1-FER present, vs DMSO controls, crizotinib 12.5 mg/kg, canertinib 10 mg/kg, 3 times a week, peritoneal injection
Description: as §3

PC3 cells xenograft = assay: Kinase inhibitor treatment of SCID mice xenografted with PC3 (PMF) cells; format: in vivo, mouse; details: for reduction of final tumor size: PC3, MAN2A1-FER present, vs DMSO controls, crizotinib 12.5 mg/kg, canertinib 10 mg/kg, 3 times a week, peritoneal injection
Description: as §3

[2] = test system: PMF cells (PC3 with inducible MAN2A1-FER-FLAG); assay: Cell death by Annexin V and propidium iodide staining, PMF cells; format: cell-based; details: Homo sapiens
Description: as §1, §2

[3] = test system: PC3, A-172 or HUH7 with or without MAN2A1-FER; assay: Killing of cancer cell lines with or without MAN2A1-FER (summary over cell lines); format: cell-based; details: Homo sapiens, read-out: IC50 values (50% inhibitory concentrations)
Description: as §1, §2

[4] = test system: PC3, A-172 and HUH7 xenografted tumors; assay: Metastasis and mortality of treated SCID mice, all tumors pooled; format: in vivo, mouse; details: for mortality of xenografted mice: tumors positive for MAN2A1-FER
Description: as §3

GST-MAN2A1-FER = biological target: T1, GST-MAN2A1-FER (Homo sapiens, UniProt P16591); assay: Phosphorylation of HisTAG-EGFR aa1-650 by GST-MAN2A1-FER with excessive peptide; format: biochemical; details: excessive amount of peptide; HisTAG-EGFR aa1-650 substrate
T1 construct: while leaving the tyrosine kinase domain in FER largely intact; MAN2A1 N-terminal 703 amino acids (fusion partner, itself N-terminally GST-tagged); made in house; host or cells: Escherichia coli BL21; the other entry of the earlier key: MAN2A1 (Q16706, Alpha-mannosidase 2)
T1 sequence (P16591 with tags, fused parts or gaps): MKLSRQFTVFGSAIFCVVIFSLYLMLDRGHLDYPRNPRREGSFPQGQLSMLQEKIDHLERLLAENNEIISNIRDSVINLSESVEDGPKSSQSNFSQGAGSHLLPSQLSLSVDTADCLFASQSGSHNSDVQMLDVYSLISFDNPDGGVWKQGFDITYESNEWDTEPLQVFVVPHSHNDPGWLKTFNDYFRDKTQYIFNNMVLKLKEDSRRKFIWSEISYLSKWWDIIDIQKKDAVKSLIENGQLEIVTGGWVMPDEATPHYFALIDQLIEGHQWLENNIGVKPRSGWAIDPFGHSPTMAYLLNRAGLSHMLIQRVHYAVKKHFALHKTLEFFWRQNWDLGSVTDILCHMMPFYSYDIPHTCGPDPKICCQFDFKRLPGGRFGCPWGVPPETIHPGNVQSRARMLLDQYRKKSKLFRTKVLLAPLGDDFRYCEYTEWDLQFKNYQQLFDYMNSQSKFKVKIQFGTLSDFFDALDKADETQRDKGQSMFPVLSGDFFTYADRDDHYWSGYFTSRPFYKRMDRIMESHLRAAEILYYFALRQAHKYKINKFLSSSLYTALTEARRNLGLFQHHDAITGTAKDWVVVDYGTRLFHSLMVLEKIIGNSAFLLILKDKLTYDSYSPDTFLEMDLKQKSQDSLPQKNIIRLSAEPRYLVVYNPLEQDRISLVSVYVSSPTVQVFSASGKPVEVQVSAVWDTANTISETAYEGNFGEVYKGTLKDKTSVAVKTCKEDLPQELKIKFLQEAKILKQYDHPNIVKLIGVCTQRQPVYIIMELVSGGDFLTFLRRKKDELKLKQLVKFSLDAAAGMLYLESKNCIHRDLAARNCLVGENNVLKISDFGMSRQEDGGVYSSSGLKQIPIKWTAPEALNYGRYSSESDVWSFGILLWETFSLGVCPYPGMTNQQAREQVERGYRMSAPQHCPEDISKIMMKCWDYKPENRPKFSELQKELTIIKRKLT

[5] = A-172, MAN2A1-FER not present, same regimen
[6] = Huh-7, HUH7 KO (MAN2A1-FER knockout)
[7] = Huh-7, HUH7 WT (MAN2A1-FER positive)
[8] = MAN2A1-FER negative cells, control 1/18
[9] = all tumors (PC3, A-172, HUH7), MAN2A1-FER present, controls 11/18

## C=CC(=O)Nc1cc2c(Nc3ccc(F)c(Cl)c3)ncnc2cc1OCCCN1CCOCC1 [canertinib]
[1]; Tet+ (MAN2A1-FER-FLAG induced)
  IC50: 10.7 nM
[1]; Tet− (no MAN2A1-FER-FLAG)
  IC50: 26.5 nM
A-172 cells xenograft; [5]
  reduction of tumor size: 19.2%
A-172 cells xenograft
  reduction of final tumor size: 73.2%
HUH7 cells; [6]
  IC50: 30.3 nM
HUH7 cells; [7]
  IC50: 14.7 nM
HUH7 cells xenograft; HUH7, MAN2A1-FER not present (knockout), same regimen
  reduction of tumor size: 40.2%
HUH7 cells xenograft
  reduction of final tumor size: 81.7%
PC3 cells xenograft; PC3, MAN2A1-FER not present, same regimen
  reduction of tumor size: 32.0%
PC3 cells xenograft
  reduction of final tumor size: 85.0%
[2]; Tet+ (MAN2A1-FER-FLAG induced)
  IC50: 10.9 nM
[2]; Tet− (no MAN2A1-FER-FLAG)
  IC50: 25.1 nM
[3]
  IC50: < 15 nM
[4]; [8]
  metastasis (mice with metastasis / mice): 2/18
[4]; [9]
  metastasis (mice with metastasis / mice): 0/18
[4]
  mortality of xenografted mice: completely eliminated the mortality

## C[C@@H](Oc1cc(-c2cnn(C3CCNCC3)c2)cnc1N)c1c(Cl)ccc(F)c1Cl [crizotinib]
[1]; Tet+ (MAN2A1-FER-FLAG induced)
  IC50: 33.1 nM
[1]; Tet− (no MAN2A1-FER-FLAG)
  IC50: 64.5 nM
A-172 cells xenograft; [5]
  increase of tumor size: 4%
A-172 cells xenograft
  reduction of final tumor size: 67.6%
HUH7 cells; [6]
  IC50: 52.9 nM
HUH7 cells; [7]
  IC50: 28.9 nM
HUH7 cells xenograft
  reduction of final tumor size: 80.7%
PC3 cells xenograft
  reduction of final tumor size: 78.6%
[2]; Tet+ (MAN2A1-FER-FLAG induced)
  IC50: 20.8 nM
[2]; Tet− (no MAN2A1-FER-FLAG)
  IC50: 43.4 nM
[4]; [8]
  metastasis (mice with metastasis / mice): 2/18
[4]; [9]
  metastasis (mice with metastasis / mice): 0/18
[4]
  mortality of xenografted mice: completely eliminated the mortality

## FLKTIQEVAGYVLIALNTVER [peptide 3]
GST-MAN2A1-FER
  blocking of phosphorylation of EGFR N-terminus by GST-MAN2A1-FER: partially blocked
